Reference: patent US20140378408A1, “NUCLEOSIDE 5'-PHOSPHOROTHIOATE ANALOGUES AND USES THEREOF” (BAR-ILAN UNIVERSITY, an Israeli University, priority 2012, published 2014)

Tests used:
human chondrocyte cells [1] = assay: NTMP hydrolysis in human chondrocyte cells; type: cell-based; settings: 0.1 mM, NTMP 0.1 mM, OD 405 nm
Description: Increased chondrocyte PPi production, and PPi-generating NPP1 activity are linked with CPPD crystal deposition disease, common in aging and osteoarthritic cartilage. […] Its hydrolysis by endogenous enzyme (NPP1) from matrix vesicles (MVs), human chondrocytes or cartilage pieces results in elevated OD at 405 nm.
In order to test the ability of the NPP1 inhibitor to inhibit NTMP hydrolysis in human chondrocyte cells, human chondrocytes 1.5×10^4 per well were seeded in 96 well plate in 100 μl DMEM/10% fetal calf serum (FCS). One day before the experiment, the medium was changed to DMEM only (w/o phenol red). Human chondrocytes were incubated with 0.1 mM NTMP in TES, pH 7.37, in the presence or absence of 0.1 mM of the NPP1 inhibitor for 0, 15′, 30′, 1, 2, 4, 6, 18 hours at 37° C. At each time point the reaction was read at 405 nm.

human chondrocyte cells [2] = assay: Hydrolysis of extracellular ATP in the presence of human chondrocyte culture; type: cell-based; settings: 100 μM each, 8 h, ATP alone 56%, without cells 18%
Description: In this study, the metabolic hydrolysis of ATP was evaluated. […] Following incubation, the samples were collected and heated at 80° C. for 15 min and extracted with chloroform, applied onto an anion exchange cartridge, and freeze-dried. The resulting residue was analyzed by HPLC.

[3] = Stability in human blood serum; type: in vitro ADME

Structure (SMILES) | inhibition of NTMP hydrolysis in human chondrocyte cells (human chondrocyte cells [1]) | degradation of ATP on co-application (human chondrocyte cells [2]) | stability in human blood serum [3]
Nc1ncnc2c1ncn2[C@@H]1O[C@H](COP(O)(=S)OP(=O)(O)C(Cl)(Cl)P(=O)(O)O)[C@@H](O)[C@H]1O (single isomer, unassigned; isomer a) [APPCCl2P-α-S (isomer A), adenosine 5′-[Pα-thio]-β,γ-(dichloromethylene)triphosphate] | inhibit the hydrolysis of NTMP | 22% | 
Nc1ncnc2c1ncn2[C@@H]1O[C@H](COP(=O)(O)CP(=O)(O)OP(O)(O)=S)[C@@H](O)[C@H]1O [APCPP-γ-S, adenosine 5′-[Pγ-thio]-α,β-methylenetriphosphate] |  |  | stable
